Test results reported in ChEMBL document CHEMBL1201862, “PubChem BioAssay data set” (2004).
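Cells were grown in 96-well plates and exposed to each compound for 48 hours at five concentrations; endpoints were interpolated linearly between bracketing concentrations, or set to the highest concentration if not reached. At the GI50, growth is halved.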 The source made the active and inactive calls. Rule as the data show it: active = GI50 up to about 1.1 µM and inactive = higher.

Assays:
Assay in all cases: NCI-60 cell line screen, 48 h
NCI-H522 = system: NCI-H522
RXF 393 = system: RXF 393
HCT-116 = system: HCT-116
HL-60 = system: HL-60
A549 = system: A549
KM12 = system: KM12
RPMI-8226 = system: RPMI-8226
MCF7 = system: MCF7
SW-620 = system: SW-620
UO-31 = system: UO-31
EKVX = system: EKVX
U-251 = system: U-251
MOLT-4 = system: MOLT-4
SK-OV-3 = system: SK-OV-3
HT-29 = system: HT-29
SF-539 = system: SF-539
M14 = system: M14
HCC 2998 = system: HCC 2998
NCI-H460 = system: NCI-H460
MDA-MB-435 = system: MDA-MB-435

Row | Compound | GI50 (NCI-H522) | GI50 (RXF 393) | GI50 (HCT-116) | GI50 (HL-60) | GI50 (A549) | GI50 (KM12) | GI50 (RPMI-8226) | GI50 (MCF7) | GI50 (SW-620) | GI50 (UO-31) | GI50 (EKVX) | GI50 (U-251) | GI50 (MOLT-4) | GI50 (SK-OV-3) | GI50 (HT-29) | GI50 (SF-539) | GI50 (M14) | GI50 (HCC 2998) | GI50 (NCI-H460) | GI50 (MDA-MB-435)
1 | CCOC(=O)c1c(O)nc(O)c(CC)c1C | > 100 µM (inactive) | > 100 µM (inactive) | > 100 µM (inactive) | > 100 µM (inactive) | > 100 µM (inactive) | > 100 µM (inactive) | > 100 µM (inactive) | > 100 µM (inactive) | > 100 µM (inactive) | > 100 µM (inactive) | > 100 µM (inactive) | > 100 µM (inactive) | > 100 µM (inactive) | > 100 µM (inactive) | > 100 µM (inactive) | 67 µM (inactive) | > 100 µM (inactive) | > 100 µM (inactive) | > 100 µM (inactive) | > 100 µM (inactive)
2 | CC(=O)OC(CN1CCN(c2ccccn2)CC1)Cn1sc2nc(C)cc(C)c2c1=O (centres undefined) | 7.03 µM (inactive) | 20.2 µM (inactive) | 16.3 µM (inactive) | 16.8 µM (inactive) | 20.6 µM (inactive) | 21.4 µM (inactive) | 5.12 µM (inactive) | 17.9 µM (inactive) | 26.4 µM (inactive) | 16.3 µM (inactive) | 17.3 µM (inactive) | 18.1 µM (inactive) | 5.58 µM (inactive) | 17.9 µM (inactive) | 18.6 µM (inactive) | 14.6 µM (inactive) | 16.5 µM (inactive) | 19.5 µM (inactive) | 18.5 µM (inactive) | 16.9 µM (inactive)
3 | Cc1c2ccnc(C(=O)NCCN(C)C)c2cc2c3cc(O)ccc3n(C)c12 | 0.236 µM (active) | 0.29 µM (active) | 0.0608 µM (active) | < 0.022 µM (active) | 0.0173 µM (active) | 0.678 µM (active) | 0.0927 µM (active) | 0.082 µM (active) | 0.0931 µM (active) | 0.267 µM (active) | 0.957 µM (active) | 0.0373 µM (active) | < 0.01 µM (active) | 0.162 µM (active) | 0.479 µM (active) | 0.0603 µM (active) | 0.215 µM (active) | 0.573 µM (active) | < 0.01 µM (active) | 0.282 µM (active)
4 | Clc1cc(C(c2cc(Cl)sc2Cl)c2cc(Cl)sc2Cl)c(Cl)s1 | > 100 µM (inactive) | > 100 µM (inactive) | > 82.2 µM (inactive) | > 100 µM (inactive) | > 100 µM (inactive) | > 100 µM (inactive) | > 100 µM (inactive) | > 100 µM (inactive) | > 100 µM (inactive) | > 100 µM (inactive) | > 100 µM (inactive) | > 100 µM (inactive) | > 81.7 µM (inactive) | > 100 µM (inactive) | > 100 µM (inactive) | > 100 µM (inactive) | > 100 µM (inactive) | > 100 µM (inactive) | > 100 µM (inactive) | > 100 µM (inactive)
5 | NC1CCN(c2nc3ccccc3c3c2CCCC3)CC1 | 5.73 µM (inactive) | 2.33 µM (inactive) | 4.01 µM (inactive) | 1.77 µM (inactive) | 9.44 µM (inactive) | 4.07 µM (inactive) | 1.8 µM (inactive) | 3.07 µM (inactive) | 2.75 µM (inactive) | 4.05 µM (inactive) | 5.9 µM (inactive) | 4.59 µM (inactive) | 2.09 µM (inactive) | 12.6 µM (inactive) | 2.11 µM (inactive) | 3.33 µM (inactive) | 1.99 µM (inactive) | 1.73 µM (inactive) | 3.5 µM (inactive) | 2.2 µM (inactive)
6 | CN(C)c1ccc(C2CC(C)(O)Oc3cc4c(cc32)OCO4)cc1 (centres undefined) | 19.1 µM (inactive) | 32.7 µM (inactive) | 34.5 µM (inactive) | 46.3 µM (inactive) | 43.7 µM (inactive) | 30 µM (inactive) | 19.7 µM (inactive) | 38.4 µM (inactive) | 35.3 µM (inactive) | 30.7 µM (inactive) | 48.9 µM (inactive) | 43.8 µM (inactive) | > 100 µM (inactive) | 48.8 µM (inactive) | 26.9 µM (inactive) | 34.1 µM (inactive) | 39.1 µM (inactive) | 32.4 µM (inactive) | 40.9 µM (inactive) | 13.6 µM (inactive)
7 | CC1(C=O)CC(CCc2ccccc2)NC1Cc1ccc(O)cc1 (centres undefined) | 19.4 µM (inactive) | 15.7 µM (inactive) | 15.6 µM (inactive) | 12.6 µM (inactive) | 15.4 µM (inactive) | 18.2 µM (inactive) | 16.2 µM (inactive) | 14.1 µM (inactive) | 23.3 µM (inactive) | 14.5 µM (inactive) | 15.2 µM (inactive) | 13.7 µM (inactive) | 14.1 µM (inactive) | 17.4 µM (inactive) | 14.9 µM (inactive) | 15.3 µM (inactive) | 15.6 µM (inactive) | 11.6 µM (inactive) | 16.6 µM (inactive) | 17.4 µM (inactive)
8 | C=CCN1CCC2(CC1)NC(=O)c1ccccc1O2 | > 100 µM (inactive) | > 100 µM (inactive) | > 100 µM (inactive) | > 100 µM (inactive) | > 100 µM (inactive) | > 100 µM (inactive) | > 100 µM (inactive) | > 100 µM (inactive) | > 100 µM (inactive) | > 100 µM (inactive) | > 100 µM (inactive) | > 100 µM (inactive) | > 100 µM (inactive) | > 100 µM (inactive) | > 100 µM (inactive) | > 100 µM (inactive) | > 100 µM (inactive) | > 100 µM (inactive) | > 100 µM (inactive) | > 100 µM (inactive)
9 | CCCCCCCCC(=O)NCCN(CCN)C(=O)CCCCCCCC | 2.65 µM (inactive) | 13.5 µM (inactive) | 3.74 µM (inactive) | 0.65 µM (active) | 13.1 µM (inactive) | 2.48 µM (inactive) | 2.49 µM (inactive) | 4.75 µM (inactive) | 2.34 µM (inactive) | 12.7 µM (inactive) | 18.2 µM (inactive) | 3.37 µM (inactive) | 3.78 µM (inactive) | 15.5 µM (inactive) | 3.3 µM (inactive) | 5.7 µM (inactive) | 8.81 µM (inactive) | 6.14 µM (inactive) | 5.86 µM (inactive) | 13.7 µM (inactive)
10 | O=[N+]([O-])/C=C/c1cc(Cl)c(/C=C/[N+](=O)[O-])cc1Cl | 0.975 µM (active) | 1.46 µM (inactive) | 1.12 µM (active) | 0.205 µM (active) | 4.63 µM (inactive) | 3.03 µM (inactive) | 1.25 µM (inactive) | 2.89 µM (inactive) | 1.03 µM (active) | 1.49 µM (inactive) | 1.91 µM (inactive) | 1.63 µM (inactive) | 0.434 µM (active) | 35.6 µM (inactive) | 2.5 µM (inactive) | 1.86 µM (inactive) | 1.87 µM (inactive) | 1.53 µM (inactive) | 19.4 µM (inactive) | 1.82 µM (inactive)
11 | COc1ccc(CC2C3=C(CCN2C(=O)C2CCC2)CC2(CC3)OCCO2)cc1O (centres undefined) | 17.9 µM (inactive) | 15.7 µM (inactive) | 34.6 µM (inactive) | 18.8 µM (inactive) | 40.9 µM (inactive) | 31.3 µM (inactive) | 36.6 µM (inactive) | 28.6 µM (inactive) | 31.3 µM (inactive) | 0.182 µM (active) | 38.8 µM (inactive) | 39.9 µM (inactive) | 37 µM (inactive) | 30.5 µM (inactive) | 29 µM (inactive) | 27.9 µM (inactive) | 21 µM (inactive) | 28.2 µM (inactive) | 27.7 µM (inactive) | 6.7 µM (inactive)
12 | CCN(CC)CC1CCCCN1CC(=O)N1c2ccc(Br)cc2C(=O)Nc2cccnc21 (centres undefined) | > 100 µM (inactive) | > 100 µM (inactive) | > 100 µM (inactive) | > 100 µM (inactive) | > 100 µM (inactive) | > 100 µM (inactive) | > 100 µM (inactive) | > 100 µM (inactive) |  | 27.2 µM (inactive) | > 100 µM (inactive) | > 100 µM (inactive) | > 100 µM (inactive) | > 100 µM (inactive) | > 100 µM (inactive) | > 100 µM (inactive) | > 100 µM (inactive) | > 100 µM (inactive) | > 100 µM (inactive) | > 100 µM (inactive)
13 | c1ccc([P+](Cc2ccc(C[P+](c3ccccc3)(c3ccccc3)c3ccccc3)s2)(c2ccccc2)c2ccccc2)cc1 | > 100 µM (inactive) | > 100 µM (inactive) | > 100 µM (inactive) | > 100 µM (inactive) | > 100 µM (inactive) | > 100 µM (inactive) | > 100 µM (inactive) | > 100 µM (inactive) | > 100 µM (inactive) | > 100 µM (inactive) | > 100 µM (inactive) | > 100 µM (inactive) | > 100 µM (inactive) | > 100 µM (inactive) | > 100 µM (inactive) | > 100 µM (inactive) | > 100 µM (inactive) | > 100 µM (inactive) | > 100 µM (inactive) | > 100 µM (inactive)
14 | Clc1ccc2c(NCCCCCCNc3ccnc4cc(Cl)ccc34)ccnc2c1 | 1.69 µM (inactive) | 3.01 µM (inactive) | 1.8 µM (inactive) | 1.98 µM (inactive) | 4.69 µM (inactive) | 2.66 µM (inactive) | 2.13 µM (inactive) | 2.51 µM (inactive) | 1.63 µM (inactive) | 4.83 µM (inactive) | 6.97 µM (inactive) | 2.45 µM (inactive) | 2.45 µM (inactive) | 5.22 µM (inactive) | 1.99 µM (inactive) | 1.87 µM (inactive) | 1.88 µM (inactive) | 1.67 µM (inactive) | 2.25 µM (inactive) | 6.04 µM (inactive)
